Results reported in PMC4713475, “In Vivo Differences between Two Optical Isomers of Radioiodinated o-iodo-trans-decalinvesamicol for Use as a Radioligand for the Vesicular Acetylcholine Transporter” (PLoS ONE, 2016).

How the values were obtained:
[1] = In vivo biodistribution study in rats; parameters: species or system rat; conditions: for Biodistribution, Blood / Biodistribution, Cerebellum / Biodistribution, Cortex / Biodistribution, Heart / Biodistribution, Kidney / Biodistribution, Liver / Biodistribution, Lung / Biodistribution, Pancreas / Biodistribution, Rest brain / Biodistribution, Small intestine / Biodistribution, Spleen / Biodistribution, Stomach / Biodistribution, Striatum: n = 4, mean ± SD
Protocol: Three groups of male Sprague-Dawley (SD) rats (n = 4 in each group), weighing 250–300 g, were anesthetized with ether and given an intravenous (i.v.) injection of (-)-[^125I]OIDV or (+)-[^125I]OIDV (0.4 mL, 185 kBq). At 2, 30, and 60 min post-injection, the animals were sacrificed by decapitation under ether anesthesia. The organs of interest were dissected, weighed, and the radioactivity levels were measured in a gamma scintillation counter (AccuFLEX γ7010, Aloka, Tokyo). The degree of accumulation of radiotracer was expressed as a percentage of the injected dose per gram of tissue (% ID/g).
(§1) The results of biodistribution study were statistically analyzed using one-way ANOVA (non-parametric) followed by a Mann Whitney test. Statistical comparisons for the in vivo blocking experiments were performed using one-way ANOVA (non-parametric), Kruskal-Wallis test, and Dunn’s Multiple Comparison test.

VAChT [2] = biological target: T1, VAChT (Rattus norvegicus, UniProt Q62666); assay: In vivo blocking study of regional brain uptake; conditions: rats, 60 min
T1 construct: from tissue; host or cells: brain of live male Sprague-Dawley rats (in vivo)
T1 sequence (Q62666 1-530): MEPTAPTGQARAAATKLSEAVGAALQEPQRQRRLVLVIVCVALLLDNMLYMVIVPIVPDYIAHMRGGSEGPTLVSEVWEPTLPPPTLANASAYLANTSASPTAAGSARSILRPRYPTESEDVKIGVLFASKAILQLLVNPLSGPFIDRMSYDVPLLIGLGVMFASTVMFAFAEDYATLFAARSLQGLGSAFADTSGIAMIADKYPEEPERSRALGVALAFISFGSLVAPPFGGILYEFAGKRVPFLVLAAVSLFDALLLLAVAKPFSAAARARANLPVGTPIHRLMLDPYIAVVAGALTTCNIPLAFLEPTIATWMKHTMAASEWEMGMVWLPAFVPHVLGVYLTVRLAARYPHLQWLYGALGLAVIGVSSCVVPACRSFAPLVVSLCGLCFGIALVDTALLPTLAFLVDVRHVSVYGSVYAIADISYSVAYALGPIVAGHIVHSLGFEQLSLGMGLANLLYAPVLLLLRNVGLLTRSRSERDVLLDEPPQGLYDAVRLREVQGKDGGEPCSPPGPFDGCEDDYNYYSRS
Protocol: The rats were sacrificed 60 minutes after injection and their brains collected. The cortex, striatum, cerebellum, and the remainder of the brain were dissected and separated, and their weights and radioactivity measured.
as §1

VAChT [3] = biological target: T1, VAChT; assay: Ex vivo autoradiography of rat brain; type: in vivo; conditions: 60 min post-injection; for regional brain distribution by ex vivo autoradiography: tracer alone
Protocol: Four SD rats were injected intravenously with either (-)-[^125I]OIDV or (+)-[^125I]OIDV (0.4 mL, 1.85 MBq) either alone as a control or with 0.25 μmol (+/–)-vesamicol via the tail vein. At 60 min post-injection, the rats were sacrificed by exsanguination, and perfused via the left ventricle with saline solution (50 mL) followed by 4% paraformaldehyde (pH 7.4, 0.1 M phosphate buffer, 100 mL). Whole brains were removed, frozen in embedding medium at -78°C and cut into 20 μm sections at -25°C using a cryostat microtome. The sections were apposed to an imaging plate (Fujifilm, BAS-IP SR 2025) for eight days. The imaging plates were scanned by a BAS-5000 phosphor image reader (Fujifilm). Ex vivo autoradiograhy of (-)-[^123I]OIDV(0.4 mL, 111 MBq) was performed by the same method of two [^125I]OIDV isomers.

[4] = Regional biodistribution of (+)-[3H]-3-PPP in rat's brain; type: in vivo; conditions: rats, n = 4, mean ± SD
From the text: S1 Table The regional biodistribution of (+)-[^3H]-3-PPP in rat’s brain.
The values are the mean ± standard deviation (SD) of four rats (n = 4) at each time point.

VAChT [5] = biological target: T1, VAChT; assay: VAChT in vitro competitive binding with (-)-[3H]vesamicol in rat brain preparations
σ-2 receptor = biological target: T2, σ-2 receptor (Rattus norvegicus, UniProt Q5U3Y7); assay: σ-2 receptor competitive binding with [3H]DTG in rat liver preparations
T2 construct: Rat liver preparations (about 100 μg protein) were incubated in quadruplicate; from tissue; host or cells: liver of male Sprague-Dawley rats
T2 sequence (Q5U3Y7 1-176): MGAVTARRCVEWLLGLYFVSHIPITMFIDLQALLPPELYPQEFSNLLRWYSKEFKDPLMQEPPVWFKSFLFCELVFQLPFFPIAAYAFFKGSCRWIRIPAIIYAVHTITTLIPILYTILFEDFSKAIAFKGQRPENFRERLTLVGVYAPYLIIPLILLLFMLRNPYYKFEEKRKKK
Protocol: Rat brain and liver tissue preparations were prepared from dissected brains (not including the cerebellum) and livers from male Sprague-Dawley rats (250–300 g), as previously described[34].
The incubated samples were treated in the same manner as described for the σ-1 receptor binding assay.
Ki values were calculated using Graphpad Prism (GraphPad Software, Inc. San Diego, USA).

OC1C[C@@H]2CCCC[C@H]2CC1N1CCC(c2ccccc2[125I])CC1 (single isomer, unassigned; (-)) [(-)-[^125I]OIDV]
striatum distribution relative to (+)-[125I]OIDV ([1]; at 30 min and 60 min post-injection): 1.4–1.6 times
retention of accumulated radioactivity in brain ([1]; i.v.): greater than 60 min
Biodistribution, Blood ([1]; i.v., 2 min post-injection): 0.13 ± 0.01 % ID/g
Biodistribution, Cerebellum ([1]; i.v., 2 min post-injection): 0.53 ± 0.04 % ID/g
Biodistribution, Cortex ([1]; i.v., 2 min post-injection): 0.55 ± 0.10 % ID/g
Biodistribution, Heart ([1]; i.v., 2 min post-injection): 2.34 ± 0.23 % ID/g
Biodistribution, Kidney ([1]; i.v., 2 min post-injection): 2.84 ± 0.63 % ID/g
Biodistribution, Liver ([1]; i.v., 2 min post-injection): 2.07 ± 0.63 % ID/g
Biodistribution, Lung ([1]; i.v., 2 min post-injection): 5.84 ± 0.44 % ID/g
Biodistribution, Pancreas ([1]; i.v., 2 min post-injection): 2.66 ± 0.40 % ID/g
Biodistribution, Rest brain ([1]; i.v., 2 min post-injection): 0.48 ± 0.07 % ID/g
Biodistribution, Small intestine ([1]; i.v., 2 min post-injection): 0.89 ± 0.12 % ID/g
Biodistribution, Spleen ([1]; i.v., 2 min post-injection): 0.94 ± 0.40 % ID/g
Biodistribution, Stomach ([1]; i.v., 2 min post-injection): 0.18 ± 0.09 % ID/g
Biodistribution, Striatum ([1]; i.v., 2 min post-injection): 0.47 ± 0.10 % ID/g
Biodistribution, Blood ([1]; i.v., 30 min post-injection): 0.05 ± 0.01 % ID/g
Biodistribution, Cerebellum ([1]; i.v., 30 min post-injection): 0.55 ± 0.11 % ID/g
Biodistribution, Cortex ([1]; i.v., 30 min post-injection): 0.62 ± 0.10 % ID/g
Biodistribution, Heart ([1]; i.v., 30 min post-injection): 0.44 ± 0.06 % ID/g
Biodistribution, Kidney ([1]; i.v., 30 min post-injection): 2.35 ± 0.38 % ID/g
Biodistribution, Liver ([1]; i.v., 30 min post-injection): 2.60 ± 0.75 % ID/g
Biodistribution, Lung ([1]; i.v., 30 min post-injection): 2.51 ± 0.90 % ID/g
Biodistribution, Pancreas ([1]; i.v., 30 min post-injection): 4.67 ± 0.58 % ID/g
Biodistribution, Rest brain ([1]; i.v., 30 min post-injection): 0.55 ± 0.09 % ID/g
Biodistribution, Small intestine ([1]; i.v., 30 min post-injection): 1.45 ± 0.50 % ID/g
Biodistribution, Spleen ([1]; i.v., 30 min post-injection): 1.37 ± 0.27 % ID/g
Biodistribution, Stomach ([1]; i.v., 30 min post-injection): 0.22 ± 0.23 % ID/g
Biodistribution, Striatum ([1]; i.v., 30 min post-injection): 0.63 ± 0.09 % ID/g
Biodistribution, Blood ([1]; i.v., 60 min post-injection): 0.04 ± 0.01 % ID/g
Biodistribution, Cerebellum ([1]; i.v., 60 min post-injection): 0.41 ± 0.07 % ID/g
Biodistribution, Cortex ([1]; i.v., 60 min post-injection): 0.51 ± 0.06^! % ID/g
Biodistribution, Heart ([1]; i.v., 60 min post-injection): 0.25 ± 0.05 % ID/g
Biodistribution, Kidney ([1]; i.v., 60 min post-injection): 2.21 ± 0.17 % ID/g
Biodistribution, Liver ([1]; i.v., 60 min post-injection): 2.19 ± 0.17 % ID/g
Biodistribution, Lung ([1]; i.v., 60 min post-injection): 1.54 ± 0.41 % ID/g
Biodistribution, Pancreas ([1]; i.v., 60 min post-injection): 4.21 ± 0.20 % ID/g
Biodistribution, Rest brain ([1]; i.v., 60 min post-injection): 0.47 ± 0.06^+ % ID/g
Biodistribution, Small intestine ([1]; i.v., 60 min post-injection): 1.85 ± 0.14 % ID/g
Biodistribution, Spleen ([1]; i.v., 60 min post-injection): 0.91 ± 0.08 % ID/g
Biodistribution, Stomach ([1]; i.v., 60 min post-injection): 0.24 ± 0.22 % ID/g
Biodistribution, Striatum ([1]; i.v., 60 min post-injection): 0.50 ± 0.07^$ % ID/g
time post-injection of highest accumulation in the brain ([1]; i.v., all brain regions): 30 min
regional brain uptake with co-injection of (+)-3-PPP (VAChT [2]; 0.25 μmol (+)-3-PPP co-injected i.v., all four brain regions): 72–82 % of control
regional brain uptake with co-injection of (+)-pentazocine (VAChT [2]; 0.25 μmol (+)-pentazocine co-injected i.v., all four brain regions): 72–82 % of control
regional brain uptake with co-injection of vesamicol (VAChT [2]; 0.25 μmol (+/-)-vesamicol co-injected i.v., all four brain regions): approximately 25 % of control
decrease in brain uptake by vesamicol (VAChT [2]; 0.250 μmol vesamicol co-injected): 71–73%
brain accumulation by ex vivo autoradiography with co-injection of vesamicol (VAChT [3]; 0.25 μmol vesamicol co-injected): remarkably decreased
regional brain distribution by ex vivo autoradiography (VAChT [3]): distributed in characteristically VAChT-rich regions

CCCN1CCC[C@H](c2cccc(O)c2)C1 [(+)-[^3H]-3-PPP]
Radioactivities, Cerebellum ([4]; 15 min post-injection): 0.53 ± 0.01 %ID/g
Radioactivities, Cerebral cortex ([4]; 15 min post-injection): 0.67 ± 0.02 %ID/g
Radioactivities, Cerebellum ([4]; 30 min post-injection): 0.30 ± 0.03 %ID/g
Radioactivities, Cerebral cortex ([4]; 30 min post-injection): 0.37 ± 0.04 %ID/g
Radioactivities, Cerebellum ([4]; 60 min post-injection): 0.18 ± 0.01 %ID/g
Radioactivities, Cerebral cortex ([4]; 60 min post-injection): 0.18 ± 0.01 %ID/g

OC1CCCCC1N1CCC(c2ccccc2)CC1 (racemic) [(+/-)-vesamicol, 2-(4-phenylpiperidino) cyclohexanol, reference compound]
Ki (VAChT [5]): 0.0233 ± 0.0033 µM
Ki (σ-2 receptor): 0.07 ± 0.0166 µM

OC1CC2CCCCC2CC1N1CCC(c2ccccc2[123I])CC1 (single isomer, unassigned; (-)) [(-)-[^123I]OIDV]
regional brain distribution by ex vivo autoradiography (VAChT [3]): same regional distribution as that of (-)-[^125I]OIDV
